Test results as given in patent US12077503B2, “Substituted cyclic amides and their use as herbicides” (FMC CORPORATION, priority 2015, dated 2024).

Assays:
Type in all cases: in vivo
[1] = tested on: barnyardgrass (Echinochloa crus-galli); assay: Test G Pre-Emergence Protocol; details: Echinochloa crus-galli, pre-emergence, 312 h, evaluated after 13 days; for pest or weed control at 15.625 g/ha: 15.625 g ai/ha; for pest or weed control at 15.625 g/ha / pest or weed control at 250 g/ha: read-out: Barnyardgrass damage rating (100=total damage to plant; 0=no damage to plant); for pest or weed control at 62.5 g/ha: 62.5 g ai/ha, 100=total damage to plant, 0=no damage to plant, read-out: Barnyardgrass damage rating; for pest or weed control at 250 g/ha: 250 g ai/ha
Summary of the method: (§1)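 Pre-emergence spray, 15.625/62.5/250 g/ha, vehicle acetone:water 50:50 + 0.5% Tween 20, applied 1 d after sowing. Glasshouse 24/16° C, 14 h light, 65% RH, watered twice daily. Visual damage rating at 13 d, 0–100 scale.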

[2] = tested on: ivy-leaved morning glory (Ipomoea hederacea); assay: Test G Pre-Emergence Protocol; details: Ipomoea, pre-emergence, 312 h, evaluated after 13 days; for pest or weed control at 15.625 g/ha: 15.625 g ai/ha; for pest or weed control at 15.625 g/ha / pest or weed control at 250 g/ha: read-out: Morningglory, Ivy-leaved damage rating (100=total damage to plant; 0=no damage to plant); for pest or weed control at 62.5 g/ha: 62.5 g ai/ha, 100=total damage to plant, 0=no damage to plant, read-out: Morningglory, Ivy-leaved damage rating; for pest or weed control at 250 g/ha: 250 g ai/ha
Summary of the method: as §1

[3] = tested on: giant foxtail (Setaria faberi); assay: Test G Pre-Emergence Protocol; details: Setaria faberi, pre-emergence, 312 h, evaluated after 13 days; for pest or weed control at 15.625 g/ha: 15.625 g ai/ha; for pest or weed control at 15.625 g/ha / pest or weed control at 250 g/ha: read-out: Foxtail, Giant damage rating (100=total damage to plant; 0=no damage to plant); for pest or weed control at 62.5 g/ha: 62.5 g ai/ha, 100=total damage to plant, 0=no damage to plant, read-out: Foxtail, Giant damage rating; for pest or weed control at 250 g/ha: 250 g ai/ha
Summary of the method: as §1

corn (Zea mays) [4] = assay: Test G Pre-Emergence Protocol; details: Zea mays, pre-emergence, 312 h, evaluated after 13 days; for plant injury at 15.625 g/ha: 15.625 g ai/ha; for plant injury at 15.625 g/ha / plant injury at 250 g/ha: read-out: Corn damage rating (100=total damage to plant; 0=no damage to plant); for plant injury at 62.5 g/ha: 62.5 g ai/ha, 100=total damage to plant, 0=no damage to plant, read-out: Corn damage rating; for plant injury at 250 g/ha: 250 g ai/ha
Summary of the method: as §1

[5] = tested on: redroot pigweed (Amaranthus retroflexus); assay: Test G Pre-Emergence Protocol; details: Amaranthus retroflexus, pre-emergence, 312 h, evaluated after 13 days; for pest or weed control at 15.625 g/ha: 15.625 g ai/ha; for pest or weed control at 15.625 g/ha / pest or weed control at 250 g/ha: read-out: Pigweed, Redroot damage rating (100=total damage to plant; 0=no damage to plant); for pest or weed control at 62.5 g/ha: 62.5 g ai/ha, 100=total damage to plant, 0=no damage to plant, read-out: Pigweed, Redroot damage rating; for pest or weed control at 250 g/ha: 250 g ai/ha
Summary of the method: as §1

[6] = tested on: velvetleaf (Abutilon theophrasti); assay: Test G Pre-Emergence Protocol; details: Abutilon theophrasti, pre-emergence, 312 h, evaluated after 13 days; for pest or weed control at 15.625 g/ha: 15.625 g ai/ha; for pest or weed control at 15.625 g/ha / pest or weed control at 250 g/ha: read-out: Velvetleaf damage rating (100=total damage to plant; 0=no damage to plant); for pest or weed control at 62.5 g/ha: 62.5 g ai/ha, 100=total damage to plant, 0=no damage to plant, read-out: Velvetleaf damage rating; for pest or weed control at 250 g/ha: 250 g ai/ha
Summary of the method: as §1

[7] = tested on: barnyardgrass (Echinochloa crus-galli); assay: Test G Post-Emergence Protocol; details: Echinochloa crus-galli, post-emergence, 312 h, read-out: Barnyardgrass damage rating; for pest or weed control at 15.625 g/ha: 15.625 g ai/ha, evaluated after 13 days (100=total damage to plant; 0=no damage to plant); for pest or weed control at 62.5 g/ha: 62.5 g ai/ha; for pest or weed control at 62.5 g/ha / pest or weed control at 250 g/ha: evaluated after 13 days, 100=total damage to plant, 0=no damage to plant; for pest or weed control at 250 g/ha: 250 g ai/ha
Summary of the method: (§2)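 Pot-grown seedlings, 8 days old, raised in a glasshouse at 24/16 °C day/night with 14 h light and 65% humidity, were sprayed post-emergence with test compound in acetone/water (50:50) plus 0.5% Tween 20 at 15.625, 62.5 or 250 g/ha. Damage was scored visually 13 days later on a 0–100 scale (100 = total damage).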

[8] = tested on: ivy-leaved morning glory (Ipomoea hederacea); assay: Test G Post-Emergence Protocol; details: Ipomoea, post-emergence, 312 h, read-out: Morningglory, Ivy-leaved damage rating; for pest or weed control at 15.625 g/ha: 15.625 g ai/ha, evaluated after 13 days (100=total damage to plant; 0=no damage to plant); for pest or weed control at 62.5 g/ha: 62.5 g ai/ha; for pest or weed control at 62.5 g/ha / pest or weed control at 250 g/ha: evaluated after 13 days, 100=total damage to plant, 0=no damage to plant; for pest or weed control at 250 g/ha: 250 g ai/ha
Summary of the method: as §2

[9] = tested on: giant foxtail (Setaria faberi); assay: Test G Post-Emergence Protocol; details: Setaria faberi, post-emergence, 312 h, read-out: Foxtail, Giant damage rating; for pest or weed control at 15.625 g/ha: 15.625 g ai/ha, evaluated after 13 days (100=total damage to plant; 0=no damage to plant); for pest or weed control at 62.5 g/ha: 62.5 g ai/ha; for pest or weed control at 62.5 g/ha / pest or weed control at 250 g/ha: evaluated after 13 days, 100=total damage to plant, 0=no damage to plant; for pest or weed control at 250 g/ha: 250 g ai/ha
Summary of the method: as §2

corn (Zea mays) [10] = assay: Test G Post-Emergence Protocol; details: Zea mays, post-emergence, 312 h, read-out: Corn damage rating; for plant injury at 15.625 g/ha: 15.625 g ai/ha, evaluated after 13 days (100=total damage to plant; 0=no damage to plant); for plant injury at 62.5 g/ha: 62.5 g ai/ha; for plant injury at 62.5 g/ha / plant injury at 250 g/ha: evaluated after 13 days, 100=total damage to plant, 0=no damage to plant; for plant injury at 250 g/ha: 250 g ai/ha
Summary of the method: as §2

[11] = tested on: redroot pigweed (Amaranthus retroflexus); assay: Test G Post-Emergence Protocol; details: Amaranthus retroflexus, post-emergence, 312 h, read-out: Pigweed, Redroot damage rating; for pest or weed control at 15.625 g/ha: 15.625 g ai/ha, evaluated after 13 days (100=total damage to plant; 0=no damage to plant); for pest or weed control at 62.5 g/ha: 62.5 g ai/ha; for pest or weed control at 62.5 g/ha / pest or weed control at 250 g/ha: evaluated after 13 days, 100=total damage to plant, 0=no damage to plant; for pest or weed control at 250 g/ha: 250 g ai/ha
Summary of the method: as §2

[12] = tested on: velvetleaf (Abutilon theophrasti); assay: Test G Post-Emergence Protocol; details: Abutilon theophrasti, post-emergence, 312 h, read-out: Velvetleaf damage rating; for pest or weed control at 15.625 g/ha: 15.625 g ai/ha, evaluated after 13 days (100=total damage to plant; 0=no damage to plant); for pest or weed control at 62.5 g/ha: 62.5 g ai/ha; for pest or weed control at 62.5 g/ha / pest or weed control at 250 g/ha: evaluated after 13 days, 100=total damage to plant, 0=no damage to plant; for pest or weed control at 250 g/ha: 250 g ai/ha
Summary of the method: as §2

COC(=O)c1cc([C@H]2CN(C)C(=O)[C@@H]2C(=O)Nc2cccc(F)c2F)ccc1F (racemic) [Compound 1678]
pest or weed control at 15.625 g/ha [1]: 0%
pest or weed control at 62.5 g/ha [1]: 0%
pest or weed control at 250 g/ha [1]: 0%
pest or weed control at 15.625 g/ha [2]: 0%
pest or weed control at 62.5 g/ha [2]: 0%
pest or weed control at 250 g/ha [2]: 0%
pest or weed control at 15.625 g/ha [3]: 0%
pest or weed control at 62.5 g/ha [3]: 0%
pest or weed control at 250 g/ha [3]: 0%
plant injury at 15.625 g/ha (corn (Zea mays) [4]): 0%
plant injury at 62.5 g/ha (corn (Zea mays) [4]): 0%
plant injury at 250 g/ha (corn (Zea mays) [4]): 0%
pest or weed control at 15.625 g/ha [5]: 0%
pest or weed control at 62.5 g/ha [5]: 0%
pest or weed control at 250 g/ha [5]: 0%
pest or weed control at 15.625 g/ha [6]: 0%
pest or weed control at 62.5 g/ha [6]: 0%
pest or weed control at 250 g/ha [6]: 0%
pest or weed control at 15.625 g/ha [7]: 0%
pest or weed control at 62.5 g/ha [7]: 10%
pest or weed control at 250 g/ha [7]: 30%
pest or weed control at 15.625 g/ha [8]: 0%
pest or weed control at 62.5 g/ha [8]: 0%
pest or weed control at 250 g/ha [8]: 0%
pest or weed control at 15.625 g/ha [9]: 0%
pest or weed control at 62.5 g/ha [9]: 10%
pest or weed control at 250 g/ha [9]: 20%
plant injury at 15.625 g/ha (corn (Zea mays) [10]): 0%
plant injury at 62.5 g/ha (corn (Zea mays) [10]): 0%
plant injury at 250 g/ha (corn (Zea mays) [10]): 0%
pest or weed control at 15.625 g/ha [11]: 10%
pest or weed control at 62.5 g/ha [11]: 10%
pest or weed control at 250 g/ha [11]: 30%
pest or weed control at 15.625 g/ha [12]: 0%
pest or weed control at 62.5 g/ha [12]: 0%
pest or weed control at 250 g/ha [12]: 0%

Cc1c(F)cccc1NC(=O)[C@@H]1C(=O)N(C)C[C@H]1c1cc(Cl)c(F)c(Cl)c1 (racemic) [Compound 1792]
pest or weed control at 15.625 g/ha [1]: 30%
pest or weed control at 62.5 g/ha [1]: 70%
pest or weed control at 250 g/ha [1]: 80%
pest or weed control at 15.625 g/ha [2]: 0%
pest or weed control at 62.5 g/ha [2]: 0%
pest or weed control at 250 g/ha [2]: 0%
pest or weed control at 15.625 g/ha [3]: 80%
pest or weed control at 62.5 g/ha [3]: 80%
pest or weed control at 250 g/ha [3]: 90%
plant injury at 15.625 g/ha (corn (Zea mays) [4]): 0%
plant injury at 62.5 g/ha (corn (Zea mays) [4]): 20%
plant injury at 250 g/ha (corn (Zea mays) [4]): 50%
pest or weed control at 15.625 g/ha [5]: 0%
pest or weed control at 62.5 g/ha [5]: 0%
pest or weed control at 250 g/ha [5]: 0%
pest or weed control at 15.625 g/ha [6]: 0%
pest or weed control at 62.5 g/ha [6]: 0%
pest or weed control at 250 g/ha [6]: 0%
pest or weed control at 15.625 g/ha [7]: 30%
pest or weed control at 62.5 g/ha [7]: 70%
pest or weed control at 250 g/ha [7]: 70%
pest or weed control at 15.625 g/ha [8]: 10%
pest or weed control at 62.5 g/ha [8]: 30%
pest or weed control at 250 g/ha [8]: 40%
pest or weed control at 15.625 g/ha [9]: 70%
pest or weed control at 62.5 g/ha [9]: 80%
pest or weed control at 250 g/ha [9]: 80%
plant injury at 15.625 g/ha (corn (Zea mays) [10]): 20%
plant injury at 62.5 g/ha (corn (Zea mays) [10]): 40%
plant injury at 250 g/ha (corn (Zea mays) [10]): 60%
pest or weed control at 15.625 g/ha [11]: 0%
pest or weed control at 62.5 g/ha [11]: 0%
pest or weed control at 250 g/ha [11]: 0%
pest or weed control at 15.625 g/ha [12]: 0%
pest or weed control at 62.5 g/ha [12]: 20%
pest or weed control at 250 g/ha [12]: 40%
